The structures appear in SMILES notation.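 1) Cells in 96-well plates. 2) Compound, 48 h, 5 concentrations. 3) Linear interpolation between surrounding doses. 4) Unreached endpoint = highest concentration. At the TGI there is no net growth.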

Among the test systems are ACHN renal; CAKI-1 renal; DU-145 prostate; HCC-2998 colon; HCT-15 colon; MDA-MB-231 breast; MDA-N; NCI-H23 lung; NCI/ADR-RES ovarian; OVCAR-3 ovarian; OVCAR-5 ovarian; PC-3 prostate; SNB-19 CNS; SW-620 colon; TK-10 renal; U251 CNS; UACC-62 melanoma; NCI-H522 lung; T-47D breast.
Assay in all cases: NCI anticancer screen, dose series, 48 h

Consider `O/N=C(/C(Cl)=C(Cl)Cl)C(Cl)Cl`, for which the TGI with ACHN renal was 32 µM; with CAKI-1 renal, 87.3 µM; in the test on DU-145 prostate, 97.4 µM; in the test on HCC-2998 colon, 79.6 µM; with HCT-15 colon, 33.5 µM; in the test on MDA-MB-231 breast, 40 µM. Further, the TGI worked out at 32.8 µM in the test on MDA-N; 30.7 µM with NCI-H23 lung; 73 µM in the test with NCI/ADR-RES ovarian; 38.6 µM in the test with OVCAR-3 ovarian; 49.4 µM in the test with OVCAR-5 ovarian; 33.9 µM with PC-3 prostate. Moreover, the TGI in the test on SNB-19 CNS was more than 100 µM; in the test with SW-620 colon it was 38.8 µM; in the test with TK-10 renal, 34.7 µM; in the test with U251 CNS it was 35.2 µM; in the test with UACC-62 melanoma, 77.2 µM.

Regarding `COCCOC(=O)NCn1cc(-c2ccccc2)nn1`, the TGI in the test with ACHN renal, in the test with CAKI-1 renal, in the test with DU-145 prostate, in the test with HCC-2998 colon, with HCT-15 colon and in the test with MDA-MB-231 breast was more than 100 µM in each case. The TGI in the test on NCI-H23 lung, in the test on NCI-H522 lung, with NCI/ADR-RES ovarian, in the test on OVCAR-5 ovarian, in the test with PC-3 prostate and in the test on SNB-19 CNS was more than 100 µM in each case. Moreover, the TGI in the test on SW-620 colon, in the test on TK-10 renal and in the test with U251 CNS was more than 100 µM each time.

As to `O=C(c1ccco1)N(C(=S)N1CCN(c2ccccc2)CC1)C1CCCCC1`, the TGI with ACHN renal, in the test with CAKI-1 renal, in the test on HCT-15 colon, in the test on NCI-H23 lung, with NCI-H522 lung and with OVCAR-3 ovarian was more than 100 µM throughout. In addition, the TGI with OVCAR-5 ovarian, in the test on SNB-19 CNS, with SW-620 colon, in the test with TK-10 renal, in the test with U251 CNS and with UACC-62 melanoma was more than 100 µM throughout.

As for `CCC(=O)NI1OC(=O)c2ccccc21`, the TGI in the test on ACHN renal is more than 100 µM; in the test on CAKI-1 renal, 55.2 µM; in the test with DU-145 prostate it was more than 100 µM; in the test on HCC-2998 colon it was more than 100 µM; with HCT-15 colon it was more than 100 µM; in the test on MDA-MB-231 breast, more than 100 µM. Besides, the TGI was more than 100 µM in the test on NCI-H23 lung; 48.8 µM in the test with NCI-H522 lung; more than 100 µM in the test on NCI/ADR-RES ovarian; more than 100 µM with OVCAR-3 ovarian; more than 100 µM in the test on OVCAR-5 ovarian; more than 100 µM with PC-3 prostate. Further, the TGI in the test with SW-620 colon, in the test with T-47D breast, in the test with TK-10 renal, with U251 CNS and with UACC-62 melanoma was more than 100 µM throughout.

Turning to `COc1cc2c(oc(=O)c3c4occc4cc(OC)c23)c2cccc(OCc3ccccc3)c12`, the TGI in the test with ACHN renal, with CAKI-1 renal, in the test on HCC-2998 colon, in the test on HCT-15 colon, with NCI-H23 lung and in the test on NCI-H522 lung was more than 100 µM each time. Besides, the TGI in the test on OVCAR-3 ovarian, with OVCAR-5 ovarian, in the test with SNB-19 CNS, with SW-620 colon, with TK-10 renal and in the test on U251 CNS was more than 100 µM each time. Further, the TGI in the test on UACC-62 melanoma is more than 100 µM.

`CC(=O)OC1OC(c2ccoc2)C[C@@]12C1CCC3O[C@]3(C)[C@]1(C)[C@H](OC(C)=O)[C@H](OC(C)=O)[C@H]2C` (some centres undefined): the TGI with ACHN renal, in the test with CAKI-1 renal, in the test on HCC-2998 colon, in the test on HCT-15 colon, in the test on MDA-MB-231 breast and in the test with MDA-N was more than 37.5 µM each time. In addition, the TGI in the test with NCI-H23 lung, with NCI/ADR-RES ovarian, in the test with OVCAR-3 ovarian, in the test with OVCAR-5 ovarian, in the test with PC-3 prostate and in the test on SNB-19 CNS was more than 37.5 µM each time. Moreover, the TGI with SW-620 colon, with TK-10 renal, in the test on U251 CNS and with UACC-62 melanoma was more than 37.5 µM throughout.

As to `CCOC(=O)/C(=C\NC(C)(C)C)c1nc2ccccc2[nH]1`, the TGI with ACHN renal was 40.9 µM; in the test with CAKI-1 renal, 96.2 µM; in the test on DU-145 prostate, more than 100 µM; in the test with HCT-15 colon, more than 100 µM; in the test with MDA-N it was 52.8 µM; in the test with NCI-H23 lung, 35.9 µM. Also, the TGI is 45.9 µM in the test with NCI-H522 lung; 92.1 µM in the test with NCI/ADR-RES ovarian; 35 µM in the test on OVCAR-3 ovarian; 55.9 µM with OVCAR-5 ovarian; more than 100 µM in the test on SNB-19 CNS; 93 µM in the test with SW-620 colon. The TGI in the test on TK-10 renal was 47.6 µM; in the test on UACC-62 melanoma, 30.1 µM.

Consider `Cc1ccc(S(=O)(=O)NC(=O)Nc2cccc(S(N)(=O)=O)c2)cc1`, for which the TGI in the test with ACHN renal, in the test on CAKI-1 renal, in the test on DU-145 prostate, with HCC-2998 colon, in the test on HCT-15 colon and in the test on MDA-MB-231 breast was more than 100 µM in each case. Besides, the TGI with NCI-H23 lung, in the test with NCI-H522 lung, in the test on NCI/ADR-RES ovarian, in the test with OVCAR-3 ovarian, with OVCAR-5 ovarian and in the test on PC-3 prostate was more than 100 µM throughout. Besides, the TGI in the test on SNB-19 CNS, in the test on SW-620 colon, in the test on T-47D breast, in the test on TK-10 renal, with U251 CNS and with UACC-62 melanoma was more than 100 µM throughout.

`O=c1cc(-c2ccccc2)[nH]c2ccc(S)cc12`: the TGI was 99.7 µM in the test on ACHN renal; more than 100 µM in the test on DU-145 prostate; 51.9 µM with HCC-2998 colon; 48 µM in the test on HCT-15 colon; more than 100 µM with MDA-MB-231 breast; more than 100 µM in the test with NCI-H23 lung. For the same molecule, the TGI is 64.5 µM in the test on NCI-H522 lung; 56.3 µM in the test with NCI/ADR-RES ovarian; more than 100 µM in the test on OVCAR-3 ovarian; more than 100 µM in the test on OVCAR-5 ovarian; more than 100 µM in the test on PC-3 prostate; more than 100 µM in the test on SNB-19 CNS. Also, the TGI was more than 100 µM in the test on SW-620 colon; 68 µM in the test on T-47D breast; 79.6 µM in the test with TK-10 renal; more than 100 µM in the test with U251 CNS; more than 100 µM in the test with UACC-62 melanoma.

(Values after PubChem BioAssay (NCI).)
